Values after ≈ are worked out from the molar mass of the structure shown. “Also recorded” adds a separate entry of the source. Like-named read-outs stand apart in the source and are kept apart here.
Experiments:
[1] = system: Enterococcus faecium (VanA VRE, ATCC BAA-2317); conditions: previously reported data; cited from earlier work
[2] = system: methicillin and oxacillin-resistant Staphylococcus aureus subsp. aureus (MRSA strain ATCC 43300); conditions: previously reported data; cited from earlier work
[3] = system: vancomycin-sensitive Staphylococcus aureus (VSSA strain ATCC 25923); conditions: previously reported data; cited from earlier work
[4] = system: vancomycin-resistant Enterococcus faecalis (VanA VRE, BM4166); conditions: BM 4166; previously reported data; cited from earlier work
[5] = system: vancomycin-resistant Enterococcus faecalis (VanB VRE, strain ATCC 51299); conditions: previously reported data; cited from earlier work
[6] = system: VanA VRE (E. faecalis BM4166 and E. faecium ATCC BAA-2317); assay: Resistance development study (serial passaging at 0.5×MIC); assay type: cell-based, Enterococcus faecalis; Enterococcus faecium; conditions: 0.5×MIC serial exposure, MICs monitored daily
Method: However, an additional and even more important feature of the expression of multiple independent mechanisms of action is a mechanism's impact on the rate at which bacterial resistance may emerge.
The MICs of the vancomycin analogues against vancomycin-resistant Enterococcus faecalis (VanA VRE, BM4166) and Enterococcus faecium (VanA VRE, ATCC BAA-2317) were determined. […] A new MIC assay was performed with the same protocol. This process was repeated for 50 passages, and the fold increase in MIC was determined at each passage. [****Pollard et al., J. Antimicrob. Chemother. 2012, 67:2665-2672.]

[7] = system: Enterococcus faecium (VanA VRE, ATCC BAA-2317); assay: In vitro antimicrobial assay (MIC), VanA E. faecium; assay type: cell-based; conditions: for antibiotic susceptibility profile of the strain: VanA E. faecium ATCC BAA-2317
Source text: (§1) One day before a study was run, fresh cultures of vancomycin-sensitive Staphylococcus aureus (VSSA strain ATCC 25923), methicillin and oxacillin-resistant Staphylococcus aureus subsp. aureus (MRSA strain ATCC 43300), vancomycin-resistant Enterococcus faecalis (VanA VRE, BM4166), Enterococcus faecium (VanA VRE, ATCC BAA-2317), vancomycin-resistant Enterococcus faecalis (VanB VRE, strain ATCC 51299), Escherichia coli (ATCC 25922), Acinetobacter baumannii (ATCC BAA-1710), Pseudomonas aeruginosa (ATCC 15442), Klebsiella pneumoniae (ATCC 700603) were inoculated and grown in an orbital shaker at 37° C. in 100% Mueller-Hinton broth (VSSA, MRSA and VanB VRE), 100% brain-heart infusion broth (VanA VRE, A. baumannii and K. pneumoniae) or 100% Luria broth (E. coli and P. aeruginosa). After 24 hours, the bacterial stock solutions were serially diluted with the culture medium (10% Mueller-Hinton broth for VSSA, MRSA and VanB VRE or 10% brain-heart infusion broth for VanA VRE A. baumannii and K. pneumoniae or 10% Luria Broth for E. coli and P. aeruginosa) to achieve a turbidity equivalent to a 1:100 dilution of a 0.5 M McFarland solution. This diluted bacterial stock solution was then inoculated in a 96-well V-shaped glass coated microtiter plate, supplemented with serial diluted aliquots of the antibiotic solution in DMSO (4 μL), to achieve a total assay volume of 0.1 mL. The plate was then incubated at 37° C. for 18 hours, after which minimal inhibitory concentrations (MICs) were determined by monitoring the cell growth (observed as a pellet) in the wells.
(§2) The lowest concentration of antibiotic (in μg/mL) capable of eliminating cell growth in the wells is the reported MIC value. The reported MIC values for the vancomycin analogues were determined against vancomycin as a standard in the first well.*
(§3) [*Clinical and Laboratory Standards Institute. Methods for Dilution Antimicrobial Susceptibility Tests for Bacteria That Grow Aerobically; Approved Standard, 7th ed.; CLSI document M07-A8; Clinical and Laboratory Standards Institute: Wayne, Pa., 2009.]

[8] = system: VanA VRE (E. faecalis BM 4166 and E. faecium ATCC BAA-2317); assay: Cell wall permeability assay (propidium iodide uptake); assay type: cell-based, Enterococcus faecalis; Enterococcus faecium; conditions: 10 μM compound
Source text: The effect of the compounds on cell membrane permeability was examined by measuring cytoplasmic membrane uptake of the fluorescent probe propidium iodide in the same VanA vancomycin-resistant E. faecalis (BM 4166) and E. faecium (ATCC BAA-2317) strains. This fluorescent probe only enters cells with permeabilized cell membranes and is detected by the emission of fluorescence upon intracellular nucleic acid binding [Boulos et al., J Microbiol Methods 1999, 37(1):77-86].
Fresh, mid-log phase VanA VRE in pH 7.2 buffer at 25° C. were preincubated with propidium iodide (10 μM) for 5 minutes before the test compounds were added, monitoring the fluorescence emission at 617 nm (excitation at 535 nm) over time, both pre (5 minutes) and post (15 minutes) compound addition. Rapid and sustained increases in fluorescence intensity are observed immediately upon addition of test compounds that induce bacterial cell membrane permeability.
One day before a study was run, cultures of vancomycin-resistant Enterococcus faecalis (VanA VRE, BM4166) and Enterococcus faecium (VanA VRE, ATCC BAA-2317), were inoculated and grown in an orbital shaker at 37° C. in 100% brain-heart infusion broth for 12 hours. The above bacterial solution was subjected to a subculture to obtain fresh mid-log phase bacterial cells (total volume of bacterial suspension=7 mL, incubation time=6 hours, OD600=0.6). After the cultured bacteria were harvested (3000 rpm, 4° C., 20 minutes), the white bacterial precipitate was washed and resuspended in 5 mM glucose and 5 mM HEPES buffer (1:1, 500 μL, pH=7.2).
This bacterial suspension (130 μL) was charged into a 96-well black plate with a clear bottom (Corning 3650). The propidium iodide dye (10 μL, 150 μM DMSO solution) was added to the above suspension and the fluorescence was monitored at 25° C. for 5 minutes at 30 second intervals using a microplate reader (Molecular Devices®, Max Gemini EX) at an excitation wavelength of 535 nm and an emission wavelength of 617 nm. The test compound (150 μM, 10 μL) was added to the cell suspension and the fluorescence was monitored at 25° C. for an additional 15 minutes.

[9] = system: vancomycin-resistant Enterococcus faecalis (VanA VRE, BM4166); assay: In vitro antimicrobial assay (MIC), VanA E. faecalis; assay type: cell-based
Source text: as §1, §2, §3

[10] = system: VanA VRE (E. faecalis BM 4166 and E. faecium ATCC BAA-2317); assay: Cell wall biosynthesis inhibition assay (accumulation of UDPMurNAc-pp 19); assay type: cell-based, Enterococcus faecalis; Enterococcus faecium; conditions: 35 μg/mL, tetracycline pretreated VanA VRE, 30 minutes, 37° C.
Source text: The inhibition of bacterial cell wall synthesis was established in an assay that quantitates the accumulation of the peptidoglycan precursor UDP-N-acetyl-muramyl-depsipentapeptide (Compound 19, UDPMurNAc-pp), resulting from inhibited cell wall incorporation following antibiotic treatment. […] This procedure was reduced in scale and modified to enlist reverse-phase HPLC separation, UV detection, and calibration curve determination of the amount of isolated 19, permitting use with limited sample sizes. A larger scale isolation and full characterization of 19 provided the material needed to establish a linear calibration curve.
The bacterial suspension was heated at 100° C. for 15 minutes to release cytosolic 19. The entire supernatant was analyzed by semi-preparative reverse-phase HPLC with a single injection and the amount of 19 was quantitated with use of the calibration curve.
Cultures of vancomycin-resistant Enterococcus faecalis (VanA VRE, BM4166) and Enterococcus faecium (VanA VRE, ATCC BAA-2317) were inoculated and grown in an orbital shaker at 37° C. in 100% brain-heart infusion broth for 12 hours. The above bacterial solution was subjected to a subculture to obtain fresh mid-log phase bacterial cells (total volume of bacterial suspension=5 mL, incubation time=6 hours, OD600=0.6). […] Vancomycin analogues were added and the mixture was incubated at 37° C. for a further 30 minutes.
After the bacteria were harvested (3000 rpm, 4° C., 20 minutes), this bacterial precipitate was washed and resuspended in 5 mM glucose and 5 mM HEPES buffer (500 μL, 1:1, pH=7.2). This bacterial suspension was heated at 100° C. for 15 minutes and centrifuged (13000 rpm, 25° C., 10 minutes). […] [*****Allen et al., Antimicrob. Agents Chemother. 1996, 40(10):2356-2362]; Liu et al., J. Am. Chem. Soc. 2001, 123:9916-9917.] The amount of UDP Mur N-Ac pentapeptide (19) was quantified by use of calibration curves for E. faecalis BM4166, and for E. faecium ATCC BAA-2317 based on the area under the curve (AUC).

[11] = system: VanA VRE (E. faecalis BM 4166 and E. faecium ATCC BAA-2317); assay: Antimicrobial activity against VanA VRE (both strains); assay type: cell-based, Enterococcus faecalis; Enterococcus faecium
Source text: as §1, §2

Structure (SMILES)	Antimicrobial Activity, MIC, VanA E. faecium [1] [µg/mL]	Antimicrobial Activity, MIC, MRSA S. aureus [2] [µg/mL]	Antimicrobial Activity, MIC, sensitive S. aureus [3] [µg/mL]	Antimicrobial Activity, MIC, VanA E. faecalis [4] [µg/mL]	Antimicrobial Activity, MIC, VanB E. faecalis [5] [µg/mL]	emergence of resistance on serial passaging [6]	antibiotic susceptibility profile of the strain [7]	inhibition of bacterial cell wall synthesis (accumulation of 19) [10]	other results
CN[C@H](CC(C)C)C(=O)N[C@H]1C(=O)N[C@@H](CC(N)=O)C(=O)N[C@H]2C(=N)N[C@@H]3C(=O)N[C@H](C(=O)N[C@H](C(=O)O)c4cc(O)cc(O)c4-c4cc3ccc4O)[C@H](O)c3ccc(c(Cl)c3)Oc3cc2cc(c3OC2OC(CO)C(O)[C@H](O)[C@@H]2O[C@H]2CC(C)(NCc3ccc(-c4ccc(Cl)cc4)cc3)[C@H](O)[C@H](C)O2)Oc2ccc(cc2Cl)[C@H]1O (some centres unmarked) [Compound 7]	0.005	0.06	0.03	0.005	0.06				
CC(=O)NC[C@H]1CN(c2ccc(N3CCOCC3)c(F)c2)C(=O)O1 [linezolid]						arises much faster and is much more pronounced; also recorded: arise much faster and was more pronounced	insensitive		
CN(C)c1cc(NC(=O)CNC(C)(C)C)c(O)c2c1C[C@H]1C[C@H]3[C@H](N(C)C)C(O)=C(C(N)=O)C(=O)[C@@]3(O)C(O)=C1C2=O [tigecycline]						arises much faster and is much more pronounced; also recorded: arise much faster and was more pronounced	sensitive		
CCCCCCCCCCCCCC[N+](C)(C)CCCNC(=O)[C@H]1NC(=O)[C@H]2NC(=O)[C@@H](NC[C@@H]3NC(=O)[C@H](CC(N)=O)NC(=O)[C@H](NC(=O)[C@@H](CC(C)C)NC)[C@H](O)c4ccc(c(Cl)c4)Oc4cc3cc(c4OC3OC(CO)C(O)[C@H](O)[C@@H]3O[C@H]3CC(C)(N)[C@H](O)[C@H](C)O3)Oc3ccc(cc3Cl)[C@H]2O)c2ccc(O)c(c2)-c2c(O)cc(O)cc21 (some centres unmarked) [Compound 13]								equally active	induced cell membrane permeability (propidium uptake) [8]: produced pronounced cell membrane permeability immediately upon addition; Antimicrobial Activity, MIC, VanA E. faecium ([7]; ATCC BAA-2317): 0.16 µg/mL; Antimicrobial Activity, MIC, VanA E. faecalis ([9]; BM 4166): 0.16 µg/mL; MIC against VanA VRE ([11]; both VanA VRE strains): 0.16 µg/mL; fold more potent than pocket analog 4 against VanA VRE ([11]; relative to Compound 4): 200 fold; fold more potent than C14-vancomycin (12) against VanA VRE ([11]; relative to Compound 12): > 10 fold; fold more potent than vancomycin against VanA VRE ([11]; relative to vancomycin (1)): > 1000 fold
CNC(CC(C)C)C(=O)NC1C(=O)NC(CC(N)=O)C(=O)NC2CNC3C(=O)NC(C(=O)NC(C(=O)O)c4cc(O)cc(O)c4-c4cc3ccc4O)C(O)c3ccc(c(Cl)c3)Oc3cc2cc(c3OC2OC(CO)C(O)C(O)C2OC2CC(C)(N)C(O)C(C)O2)Oc2ccc(cc2Cl)[C@@H]1O (some centres unmarked) [Compound 4, [Ψ[CH2NH] Tpg^4]vancomycin]	31			31				inhibits bacterial cell wall biosynthesis; also recorded: equally active	MIC ([7]; Enterococcus faecium, read-out: Antimicrobial Activity, MIC, VanA E. faecium): 31 µg/mL (≈ 21.6 µM); MIC ([9]; Enterococcus faecalis, VRE, read-out: Antimicrobial Activity, MIC, VanA E. faecalis): 31 µg/mL (≈ 21.6 µM); MIC ([11]; Enterococcus, read-out: MIC against VanA VRE): 31 µg/mL (≈ 21.6 µM)
CN[C@H](CC(C)C)C(=O)N[C@H]1C(=O)N[C@@H](CC(N)=O)C(=O)N[C@H]2C(=S)N[C@@H]3C(=O)N[C@H](C(=O)N[C@H](C(=O)O)c4cc(O)cc(O)c4-c4cc3ccc4O)[C@H](O)c3ccc(c(Cl)c3)Oc3cc2cc(c3OC2OC(CO)C(O)[C@H](O)[C@@H]2O[C@H]2CC(C)(N)[C@H](O)[C@H](C)O2)Oc2ccc(cc2Cl)[C@H]1O (some centres unmarked) [Compound 2]	>32	>32	>32	>32	>32			do not effectively inhibit bacterial cell wall synthesis	

Reference: patent publication US10934326B2, “Peripheral modifications on pocket-redesigned vancomycin analogs synergistically improve antimicrobial potency and durability” (priority 2016, dated 2021)
